# In paper PMC12802961 (Journal of Antimicrobial Chemotherapy, 2025):
# Marks after values point to notes of the source that are not given here.
# Legend:
# [1] = system: P. aeruginosa 106; assay: Checkerboard broth microdilution MIC of cefepime alone and with taniborbactam; format: cell-based, Pseudomonas aeruginosa; conditions: AmpC constitutively-producing P. aeruginosa; in vitro checkerboard
# From the text: (§1) Four previously well-characterized cefepime-resistant isolates, namely one ESBL-producing E. coli, one ESBL-producing K. pneumoniae and two P. aeruginosa (one VIM- and one AmpC constitutively -producing), were used.
# [2] = system: P. aeruginosa 132; assay: as above; format: cell-based, Pseudomonas aeruginosa; conditions: VIM-producing P. aeruginosa; in vitro checkerboard
# From the text: as §1
# [3] = Single-dose plasma pharmacokinetics, s.c., infected neutropenic mice
# Procedure: All animal procedures were carried out in the Animal Facility for Medical and Scientific Purposes of the University General Hospital Attikon (EL 25 BIO 014), Athens, Greece. […] Outbred female CD-1 mice, obtained by the Hellenic Pasteur Institute, Greece, and Charles River Laboratories Models and Services, Germany, were used at the age of 7–8 weeks, weighing 20–25 g. The animals were allowed to acclimatize for at least 5 days upon arrival and were housed under standard conditions with water and food supplied ad libitum. […] Infection was induced (Day 0) by intramuscular injection of 0.05 mL bacterial inoculum of approximately 10^5–10^6 cfu/thigh.
# The dose was administered s.c. (0.1 mL) 2 h after infection (t = 0 h). Blood samples were collected in 1 mL K3EDTA tubes through orbital sinus bleeding under isoflurane anaesthesia. Animals were immediately euthanized through cervical dislocation and blood samples taken at timepoints 0, 0.08, 0.25, 0.5, 0.75, 1, 1.5, 2, 3, 4, 6, and 8 h after single dose injection. Blood samples were centrifuged immediately after collection in a pre-cooled centrifuge, and plasma was stored at −80°C. For each timepoint two animals were euthanized in order to have duplicates for each condition.
# The Cmax values were calculated from raw data and the AUCs were calculated using the trapezoidal rule. […] Equations used in the program were the classical polyexponential equations Ci(t) = PolyExp(i, n, t), where i = number of the compartments, n = number of doses and t = time from last dose (http://www.boomer.org/c/p4/c19/c19.pdf). The %fT > Ct was then determined using a bisectional rootfinder for intersections between simulated curve and concentration, and calculating the difference between intersection values. Free drug concentrations were used in all calculations.
# For taniborbactam, a population pharmacokinetic model was developed using nonlinear mixed-effects modelling (NONMEM). The analysis was performed on the natural logarithm of the concentrations using the FOCE method with INTERACTION. All mice were assumed to weigh 1kg, resulting in PK parameters corresponding to a per kg base. […] Tools used to evaluate and visualize the model were RStudio (v0.98.1049), R (v3.1.2), XPose (v4.5.3) and PsN (v4.6.0), all with the graphical interface Pirana (v2.9.0).
# To determine the structural pharmacokinetic model 1-, 2- and 3-compartment models were tested. Pharmacokinetic parameters were estimated in terms of central and peripheral volume of distribution (Vc and Vp), clearance (CL), and intercompartmental clearance (Q). Addition of interindividual variability (IPV), described using an exponential eta model, was evaluated for each pharmacokinetic parameter. The covariance between values for IPV was estimated using a […] matrix. Residual variability between observed and predicted plasma concentrations was described using an additional error model for logarithmically transformed data. The minimum value of objective function (OFV) was used as a criterion for model selection. […] Model adequacy was further evaluated by using various residual plots (‘goodness-of-fit’ plots) and values of random effects in variances. In the second step relationships between pharmacokinetic parameters and potential covariates were investigated. […] Dose covariates were modelled by using an exponential model, place of infection was modelled proportionally. Criteria for the inclusion of covariates in the model were the OFV, results of graphical evaluation of the parameter-covariate relationship and the decrease in parameter variability.
# Three procedures were used to validate the final model. As an internal validation method, a bootstrap resampling method was used. Bootstrap datasets (n=1000) were generated by sampling randomly from the original dataset with replacement. Parameters were estimated for each of the replicate datasets using the developed model.
# [4] = system: K. pneumoniae 59; assay: Neutropenic murine thigh infection model; format: in vivo, Klebsiella pneumoniae
# Procedure: All dosing regimens were performed in at least two animals per dosing regimen.
# At t = 0 h, 2 h after infection, two mice were humanely euthanized to determine the initial number of cfu/thigh just before treatment. […] Subsequently, thighs were homogenized using the Ultra-Turrax homogenizer (IKA Labortechnik, Germany). For each thigh 10-fold dilution series were prepared and 3 × 10 µL per dilution were plated (Chromagar, bioMérieux, NL). The following day, colonies were counted and the number of cfu/thigh was calculated.
# Free drug concentrations were used in all calculations.
# [5] = system: β-lactamase–producing Enterobacterales and Pseudomonas aeruginosa; assay: Neutropenic murine thigh infection model, all isolates together; format: in vivo
# Procedure: […]. […] […]. All dosing regimens were performed in at least two animals per dosing regimen.
# At t = 0 h, 2 h after infection, two mice were humanely euthanized to determine the initial number of cfu/thigh just before treatment. All other animals were euthanized at t = 24 h unless the welfare of the animals indicated earlier termination, following animal welfare regulations. Thighs were taken and moved to a pre-cooled 10 mL plastic tube (Transport Tube, Omnilabo, NL) containing 2 mL PBS (NaCl 8.00 g/L, Na2HPO4 * 2H2O 1.44 g/L, KH2PO4 0.26 g/L, pH 7.2–7.4). Subsequently, thighs were homogenized using the Ultra-Turrax homogenizer (IKA Labortechnik, Germany). For each thigh 10-fold dilution series were prepared and 3 × 10 µL per dilution were plated (Chromagar, bioMérieux, NL). The following day, colonies were counted and the number of cfu/thigh was calculated. The drug effect was then determined as the difference between the log10cfu/thigh values at t = 24 h and t = 0 h (mean value of two mice) expressed as Δlog10cfu, i.e. positive result for growth, zero for static effect and negative for reduction of inoculum (killing).
# . […] Free drug concentrations were used in all calculations. […]
# [6] = taniborbactam, two-compartment model
# [7] = Ct = taniborbactam concentration where reversal of cefepime resistance was found in vitro
smiles,measurement,setting,value
"NCCN[C@H]1CC[C@H](CC(=O)N[C@H]2Cc3cccc(C(=O)O)c3OB2O)CC1 [taniborbactam, Taniborbactam]",Taniborbactam concentration at which reversal of phenotypic resistance to cefepime was observed,[1],2 mg/L
same,Taniborbactam concentration at which reversal of phenotypic resistance to cefepime was observed,[2],0.125 mg/L
same,"Absorption rate (h-1), Bootstrap",[3]; 772 successful bootstrap runs,20 h⁻¹
same,"Central volume of distribution (L/Kg), Bootstrap median (95-percentile range)",[3]; 772 successful bootstrap runs,0.63 (0.58-0.68) L/Kg
same,"Clearance (L/h/Kg), Bootstrap median (95-percentile range)",[3]; 772 successful bootstrap runs,1.49 (1.23-1.57) L/h/Kg
same,"IPV (%) on clearance, Bootstrap median (95-percentile range)",[3]; 772 successful bootstrap runs,14 (8-19) %
same,"IPV (%) on intercompartmental clearance, Bootstrap median (95-percentile range)",[3]; 772 successful bootstrap runs,59 (40-77) %
same,"Intercompartmental clearance (L/h), Bootstrap median (95-percentile range)",[3]; 772 successful bootstrap runs,0.11 (0.08-0.35) L/h
same,"Peripheral volume of distribution (L/Kg), Bootstrap median (95-percentile range)",[3]; 772 successful bootstrap runs,0.94 (0.46-13.0) L/Kg
same,t1/2a,"[3]; central compartment, estimated",17.6 min
same,"IPV (%) on clearance, Estimation, value (RSE)",[3]; interindividual variability of CL,14.2 (14%)
same,"IPV (%) on intercompartmental clearance, Estimation, value (RSE)",[3]; interindividual variability of Q,60.7 (13%)
same,t1/2b,"[3]; peripheral compartment, estimated",45 min
same,"Central volume of distribution (L/Kg), Estimation, value (RSE)",[3]; population PK model (NONMEM),0.628 (4%) L/Kg
same,"Clearance (L/h/Kg), Estimation, value (RSE)",[3]; population PK model (NONMEM),1.49 (3%) L/h/Kg
same,"Peripheral volume of distribution (L/Kg), Estimation, value (RSE)",[3]; population PK model (NONMEM),0.926 (1%) L/Kg
same,"Absorption rate (h-1), Estimation","[3]; population PK model (NONMEM), fixed",20 (fixed) h-1
same,"Intercompartmental clearance (L/h), Estimation, value (RSE)","[3]; population PK model (NONMEM), per kg",0.109 (10%) L/h
same,Vc,[3]; [6],0.628 L/kg
same,volume of peripheral compartment Vp,[3]; [6],0.926 L/kg
same,Ka,"[3]; taniborbactam, two-compartment model, fixed value",20 h⁻¹
same,Stasis: Taniborbactam %ƒT > Ct 0.015 mg/L,"[4]; + cefepime q2h 4 mg/kg, Ct 0.015 mg/L",100%
same,1 log kill: Taniborbactam %ƒT > Ct 0.015 mg/L,"[4]; + cefepime q2h 4 mg/kg, Ct 0.015 mg/L, at extrapolated dose",100%
same,Stasis: Taniborbactam %ƒT > Ct 0.03 mg/L,"[4]; + cefepime q2h 4 mg/kg, Ct 0.03 mg/L",100%
same,1 log kill: Taniborbactam %ƒT > Ct 0.03 mg/L,"[4]; + cefepime q2h 4 mg/kg, Ct 0.03 mg/L, at extrapolated dose",100%
same,Stasis: Taniborbactam %ƒT > Ct 0.06 mg/L,"[4]; + cefepime q2h 4 mg/kg, Ct 0.06 mg/L",86.2%
same,1 log kill: Taniborbactam %ƒT > Ct 0.06 mg/L,"[4]; + cefepime q2h 4 mg/kg, Ct 0.06 mg/L, at extrapolated dose",100%
same,Stasis: Taniborbactam %ƒT > Ct 0.125 mg/L,"[4]; + cefepime q2h 4 mg/kg, Ct 0.125 mg/L",69.3%
same,1 log kill: Taniborbactam %ƒT > Ct 0.125 mg/L,"[4]; + cefepime q2h 4 mg/kg, Ct 0.125 mg/L, at extrapolated dose",100%
same,Stasis: Taniborbactam %ƒT > Ct 0.25 mg/L,"[4]; + cefepime q2h 4 mg/kg, Ct 0.25 mg/L",52.4%
same,1 log kill: Taniborbactam %ƒT > Ct 0.25 mg/L,"[4]; + cefepime q2h 4 mg/kg, Ct 0.25 mg/L, at extrapolated dose",100%
same,Stasis: Taniborbactam %ƒT > Ct 0.5 mg/L,"[4]; + cefepime q2h 4 mg/kg, Ct 0.5 mg/L",35.5%
same,1 log kill: Taniborbactam %ƒT > Ct 0.5 mg/L,"[4]; + cefepime q2h 4 mg/kg, Ct 0.5 mg/L, at extrapolated dose",100%
same,Stasis: Taniborbactam %ƒT > Ct 1 mg/L,"[4]; + cefepime q2h 4 mg/kg, Ct 1 mg/L",18.6%
same,1 log kill: Taniborbactam %ƒT > Ct 1 mg/L,"[4]; + cefepime q2h 4 mg/kg, Ct 1 mg/L, at extrapolated dose",99.01%
same,Stasis: Taniborbactam %ƒT > Ct 2 mg/L,"[4]; + cefepime q2h 4 mg/kg, Ct 2 mg/L",0%
same,1 log kill: Taniborbactam %ƒT > Ct 2 mg/L,"[4]; + cefepime q2h 4 mg/kg, Ct 2 mg/L, at extrapolated dose",83.25%
same,Stasis: Taniborbactam %ƒT > Ct 4 mg/L,"[4]; + cefepime q2h 4 mg/kg, Ct 4 mg/L",0%
same,1 log kill: Taniborbactam %ƒT > Ct 4 mg/L,"[4]; + cefepime q2h 4 mg/kg, Ct 4 mg/L, at extrapolated dose",66.35%
same,Stasis: Taniborbactam total daily dose,[4]; taniborbactam q2h + cefepime q2h 4 mg/kg,24.00 mg/kg
same,"1 log kill: Taniborbactam total daily dose, mg/kg","[4]; taniborbactam q2h + cefepime q2h 4 mg/kg, extrapolated dose, effect not reached within tested doses",(680)^b mg/kg
same,%fT > Ct of taniborbactam associated with 1 log10 kill,[5]; [7],60%–100%
same,%fT > Ct of taniborbactam associated with stasis,[5]; [7],40%–50%
same,Effect of taniborbactam on cefepime's static effect,"[5]; all isolates, combined with cefepime",restored cefepime’s static effect against all isolates
same,Taniborbactam TDDs at which cefepime regained its static effect,"[5]; all isolates, with marginally ineffective doses of cefepime",3.2 to 105 mg/kg
same,Taniborbactam TDDs at which cefepime regained its 1 log10 kill effect,[5]; all strains except K. pneumoniae,26–293 mg/kg
same,q2h regimens more effective than q8h regimens,[5]; taniborbactam dose fractionation with cefepime q2h,> 10 fold
